Patent US20250325516A1, “SEROTONIN ANALOGUES FOR USE IN TREATING METALLOPTOSIS-ASSOCIATED DISORDERS” (INSTITUT CURIE, priority 2022, published 2025)
Entries after “also recorded” stand apart in the source; their conditions may differ.

Experiments:
HMLER cells = assay: ICP-MS of total cellular iron and copper; assay type: cell-based, human; settings: 100 nM, 3 h or 24 h
Protocol: All cells were grown in an incubator equilibrated at 37° C. with 5% CO2, grown to confluence and split with Trypsin/EDTA (Gibco, TRYPGIB01) once or twice a week according to confluence. HMLER cells ([…]) naturally repressing E-cadherin, obtained from human mammary epithelial cells infected with a retrovirus carrying hTERT, SV40 and the oncogenic allele H-rasV12, and HMLER CD44 and TFRC ko clones were cultured in DMEM/F12 (Thermo Fisher Scientific, 31331093) supplemented with 10% FBS (v/v) (Thermo Fisher Scientific, 10270106), 10 μg/mL insulin (Sigma-Aldrich, 10516), 0.5 μg/mL hydrocortisone (Sigma-Aldrich, H0888) and 0.5 μg/ml puromycin (Life Technologies, A11138-02), unless stated otherwise. […]
Glass vials equipped with Teflon septa were cleaned with nitric acid 65% (w/v) (VWR, Suprapur, 1.00441.0250), washed with ultrapure water (Sigma-Aldrich, 1012620500) and dried. […] Cells were then counted using an automated cell counter (Entek) and transferred in 100 μL 1×PBS to the cleaned glass vials, and samples were lyophilized using a freeze dryer (CHRIST, 22080). […] 56Fe concentrations were measured using an Agilent 7900 ICP-QMS in low-resolution mode. […] Isotopes were measured using a collision-reaction interface with helium gas (5 mL/min) to remove polyatomic interferences. […]

[1] = Cyclic voltammetry of FeCl3 after addition of compounds (FIG. 10b); assay type: binding; settings: 1 mM FeCl3 in 0.3 M nBu4NBF4 in MeCN, scan rate 2 V/s
Protocol: Cyclic voltammetry experiments were performed with a three-electrode cell under argon. Saturated Calomel Electrode (SCE) was used as reference, a steady Glassy Carbon (GC) electrode of diameter 3 mm was selected as working electrode and a Platinum wire as counter-electrode. All cyclic voltammograms were recorded at RT with a μ-autolab III from Metrohm using Nova software with a scan rate of 2 V/s. MeCN was used as a degassed HPLC grade from Carlo Erba. Water was mQ H2O. Stock solution of FeCl3 (100 mM) and Lip-1, A3, A0 and DFO (20 mM) were prepared with 0.3 M nBu4NBF4 in MeCN. 1 mM FeCl3 in 0.3 M nBu4NBF4 in MeCN (1 mL) was used as working solution for recording and subsequently equivalents of compounds were added, stirred and recorded.

BELA cells = assay: Annexin/PI flow cytometry, RSL3-treated BELA cells (FIG. 7); assay type: cell-based; settings: various concentrations of RSL3, 10 μM A3, 24 h
Protocol: Bodipy-C11 (Thermo Fisher Scientific, D3861) were used according to the manufacturer's protocol. RhoNox-M (in-house) was added to live cells prior to flow cytometry analysis for 1 h at a concentration of 1 μM. For the Annexin/PI assay (Thermo Fisher Scientific, V13245, manufacturer's protocol) BELA cells were treated with RSL3 in the presence or absence of 1 μM Liproxstatin-1 (Sigma-Aldrich, SML1414) or 10 μM A3 for 24 h. Cells were then washed twice with ice-cold 1×PBS and suspended in incubation buffer prior to being analyzed by flow cytometry. The manufacturer's protocol was followed. For each condition, at least 10,000 cells were counted. Data were recorded on an Attune (Thermo Fisher Scientific) and processed using FlowJo (FLOWJO, LLC).

PDAC cells = assay: Click-labelling fluorescence microscopy with LysoTracker and organelle antibodies, PDAC cells (FIG. 9); assay type: cell-based; settings: 10 μM, 3 h
Protocol: Pancreatic Ductal Adenocarcinoma (PDAC) cells were grown at 37° C. and 5% CO2 using medium prepared based on previously described (https://doi.org/10.1053/j.gastro.2004.03.058). Cells were plated on cover slips 24 h prior to the experiment. The cells were treated with 10 µM of compounds for 3 h and LysoTracker Deep Red (ThermoFisher Scientific L12492, 1:10000) according to the manufacturer's protocol. Subsequently, cells were washed three times with 1×PBS and fixed with 2% paraformaldehyde (w/v) in 1×PBS for 12 min, and then washed three times with 1×PBS. After fixation, cells were permeabilized with 0.1% Triton X-100 (v/v) in 1×PBS for 5 min and washed three times with 1×PBS. Then, cells were blocked in 2% BSA, 0.2% Tween-20 (w/v)/1×PBS (blocking buffer) for 20 min at RT. The click reaction cocktail was prepared from Click-iT EdU Imaging Kits (ThermoFisher Scientific, C10337) according to the manufacturer's protocol. Briefly, 868 μL of 1× Click-iT reaction buffer was mixed with 40 μl CuSO4 solution, 2 μL Alexa Fluor azide and 90 μl reaction buffer additive (sodium ascorbate) to reach a final volume of 1 mL. Cover slips were incubated with 50 μl of the click reaction cocktail in the dark at RT for 30 minutes, then washed three times with 1×PBS. Further, cells were incubated with the relevant antibody in blocking buffer for 1 h at room temperature and washed three times with blocking buffer. Then, cells were incubated with secondary antibodies for 1 h. Finally, cover slips were washed three times with 1×PBS and mounted using VECTASHIELD (Vector Laboratories) containing DAPI and were sealed with nail varnish Express manucure (Maybelline, 16P201). Fluorescence images were acquired using a Deltavision real-time microscope (Applied Precision). 100×/1.4NA objectives were used for 2D and 3D acquisitions that were deconvoluted with SoftWorx (Ratio conservative-10 iterations, Applied Precision) and processed with ImageJ.

C#CCNCCc1c[nH]c2ccc(O)cc12 [Compound A3]
total intracellular copper (ICP-MS) (HMLER cells): increase | total intracellular iron (ICP-MS) (HMLER cells): increase | binding / chelation of Fe^3+ (cyclic voltammetry) [1]: chelates/binds to Fe^3+ | cell death induced by the ferroptosis inducer RSL3 (Annexin/propidium iodide) (BELA cells): protects against RSL3-induced ferroptosis; also recorded: rescued cell death | localization in lysosomes (PDAC cells): found to localize in lysosomes; also recorded: goes to lysosomes | colocalization with other cell organelles (PDAC cells; organelle antibodies): not on other cell organelles; also recorded: doesn't colocalize with other cell organelles
